Laboratory results published in paper PMC8119466, “A screen of FDA-approved drugs identifies inhibitors of protein tyrosine phosphatase 4A3 (PTP4A3 or PRL-3)” (Scientific Reports, 2021).
Where two headings read alike, the source gives them in different places.

Assays:
Format in all cases: biochemical
recombinant PRL-1 = biological target: T1, recombinant PRL-1 (Homo sapiens, UniProt Q93096); experiment: In vitro phosphatase assay (DiFMUP hydrolysis), PRL-1; further: test concentration or dose not given here
T1 construct: 6xHis (N, cleaved yes); made in house; host or cells: E. coli One Shot BL21 Star
T1 sequence (Q93096 1-173): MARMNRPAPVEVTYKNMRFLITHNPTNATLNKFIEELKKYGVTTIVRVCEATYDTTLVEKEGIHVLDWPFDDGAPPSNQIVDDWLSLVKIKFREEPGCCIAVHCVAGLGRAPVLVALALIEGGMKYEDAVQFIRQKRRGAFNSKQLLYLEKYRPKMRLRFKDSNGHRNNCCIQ

recombinant PRL-2 = biological target: T2, recombinant PRL-2 (Homo sapiens, UniProt Q12974); experiment: In vitro phosphatase assay (DiFMUP hydrolysis), PRL-2;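 further: PRL-2 activity read as DiFMUP hydrolysis after 20 min at room temperature with drug, enzyme first pre-reduced at 4 °C for 20 min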
T2 construct: 6xHis (N, cleaved yes); made in house; host or cells: E. coli One Shot BL21 Star
T2 sequence (Q12974 1-167): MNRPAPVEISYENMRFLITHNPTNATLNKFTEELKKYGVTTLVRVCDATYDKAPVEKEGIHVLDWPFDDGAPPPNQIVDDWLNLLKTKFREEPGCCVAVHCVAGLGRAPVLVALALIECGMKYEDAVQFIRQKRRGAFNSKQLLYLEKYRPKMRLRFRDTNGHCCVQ

recombinant PRL-3 = biological target: T3, recombinant PRL-3 (Homo sapiens, UniProt O75365); experiment: In vitro phosphatase assay (DiFMUP hydrolysis), PRL-3; further: test concentration or dose not given here
T3 construct: 6xHis (N, cleaved yes); made in house; host or cells: E. coli One Shot BL21 Star

[1] = FDA-approved drug screen, compared to DMSO
[2] = FDA-approved drug screen, activity compared to DMSO

T3 sequence (O75365 whole entry): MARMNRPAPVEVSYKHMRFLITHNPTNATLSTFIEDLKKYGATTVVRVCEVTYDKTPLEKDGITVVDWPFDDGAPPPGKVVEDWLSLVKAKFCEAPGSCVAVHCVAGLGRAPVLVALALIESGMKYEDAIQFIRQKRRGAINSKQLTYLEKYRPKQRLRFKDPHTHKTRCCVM

Compound	% Phosphatase Activity (compared to DMSO) PRL-1 (recombinant PRL-1; [1]) [%]	% Phosphatase Activity (compared to DMSO) PRL-2 (recombinant PRL-2; [1]) [%]	% Phosphatase Activity (compared to DMSO) PRL-3 (recombinant PRL-3; [1]) [%]	further results
NCCCC[C@H](N[C@@H](CCc1ccccc1)C(=O)O)C(=O)N1CCC[C@H]1C(=O)O [Lisinopril]	100	86	93	
CN1CCN(CCCN2c3ccccc3Sc3ccc(Cl)cc32)CC1.O=C(O)/C=C\C(=O)O.O=C(O)/C=C\C(=O)O [Prochlorperazine dimaleate salt]	93	108	91	
GHRP-2	98	102	100	
O=C([O-])c1ccccc1O.[Na+] [Sodium salicylate]				% Phosphatase Activity (compared to DMSO) PRL-1 (recombinant PRL-1): 130%; % Phosphatase Activity (compared to DMSO) PRL-2 (recombinant PRL-2): 103%; % Phosphatase Activity (compared to DMSO) PRL-3 (recombinant PRL-3): 95%
CO[C@H]1C[C@@H]2CC[C@@H](C)[C@@](O)(O2)C(=O)C(=O)N2CCCC[C@H]2C(=O)O[C@H]([C@H](C)C[C@@H]2CC[C@@H](O)[C@H](OC)C2)CC(=O)[C@H](C)/C=C(\C)[C@@H](O)[C@@H](OC)C(=O)[C@H](C)C[C@H](C)/C=C/C=C/C=C/1C [Rapamycin (Sirolimus)]	88	89	75	
Cn1c(COP(=O)(NCCBr)NCCBr)cnc1[N+](=O)[O-] [TH-302]				% Phosphatase Activity (compared to DMSO) PRL-1 (recombinant PRL-1; [2]): 91%; % Phosphatase Activity (compared to DMSO) PRL-2 (recombinant PRL-2; [2]): 100%; % Phosphatase Activity (compared to DMSO) PRL-3 (recombinant PRL-3; [2]): 95%
Cc1cnc(Nc2ccc(OCCN3CCCC3)cc2)nc1Nc1cccc(S(=O)(=O)NC(C)(C)C)c1 [TG101348 (SAR302503)]				% Phosphatase Activity (compared to DMSO) PRL-1 (recombinant PRL-1; [2]): 97%; % Phosphatase Activity (compared to DMSO) PRL-2 (recombinant PRL-2; [2]): 96%; % Phosphatase Activity (compared to DMSO) PRL-3 (recombinant PRL-3; [2]): 95%
CCN(CC)CCNC(=O)c1cc(Cl)c(N)cc1OC.Cl [MetoclopraMide HCl]	97	84	75	
CO[C@H]1C(=O)[C@]2(C)[C@@H](OC)C[C@H]3OC[C@@]3(OC(C)=O)[C@H]2[C@H](OC(=O)c2ccccc2)[C@]2(O)C[C@H](OC(=O)[C@H](O)[C@@H](NC(=O)OC(C)(C)C)c3ccccc3)C(C)=C1C2(C)C [Cabazitaxel]	88	107	89	
Br.COc1ccc2c(c1)[C@]13CCCC[C@@H]1[C@H](C2)N(C)CC3.O [Dextromethorphan (hydrobromide hydrate)]	104	118	92	
C=CC(=O)Nc1cc(Nc2nccc(-c3cn(C)c4ccccc34)n2)c(OC)cc1N(C)CCN(C)C [AZD9291]	88	89	100	
COc1ccc(CC2c3cc(OC)c(OC)cc3CC[N+]2(C)CCC(=O)OCCCCCOC(=O)CC[N+]2(C)CCc3cc(OC)c(OC)cc3C2Cc2ccc(OC)c(OC)c2)cc1OC (stereo not drawn) [Atracurium Besylate]	99	101	101	
CC(=O)c1c(C)c2cnc(Nc3ccc(N4CCNCC4)cn3)nc2n(C2CCCC2)c1=O.O=S(=O)(O)CCO [Palbociclib (PD0332991) Isethionate]	75	61	100	
OC[C@H]1OC(O)[C@H](O)[C@@H](O)[C@@H]1O (stereo partly drawn) [Dextrose]	106	113	79	
Cl.NCCc1c[nH]c2ccc(O)cc12 [Serotonin HCl]	106	101	80	
